This passage reports IC50 and inhibition results from patent publication US7427625B2, “Substituted thiatriazaacenaphthylene-6-carbonitrile kinase inhibitors” (Janssen Pharmaceutica, N.V., priority 2006, dated 2008).

For one experiment, the target named is T1, EGFR (Homo sapiens, UniProt P00533).
T1 construct: The intracellular portion of EGFR started at nucleotide 2189 (corresponding to amino acid 667) and ended at the termination codon; made in house; host or cells: Sf9 insect cells (baculovirus)
T1 sequence (P00533 669-1210 limits assumed): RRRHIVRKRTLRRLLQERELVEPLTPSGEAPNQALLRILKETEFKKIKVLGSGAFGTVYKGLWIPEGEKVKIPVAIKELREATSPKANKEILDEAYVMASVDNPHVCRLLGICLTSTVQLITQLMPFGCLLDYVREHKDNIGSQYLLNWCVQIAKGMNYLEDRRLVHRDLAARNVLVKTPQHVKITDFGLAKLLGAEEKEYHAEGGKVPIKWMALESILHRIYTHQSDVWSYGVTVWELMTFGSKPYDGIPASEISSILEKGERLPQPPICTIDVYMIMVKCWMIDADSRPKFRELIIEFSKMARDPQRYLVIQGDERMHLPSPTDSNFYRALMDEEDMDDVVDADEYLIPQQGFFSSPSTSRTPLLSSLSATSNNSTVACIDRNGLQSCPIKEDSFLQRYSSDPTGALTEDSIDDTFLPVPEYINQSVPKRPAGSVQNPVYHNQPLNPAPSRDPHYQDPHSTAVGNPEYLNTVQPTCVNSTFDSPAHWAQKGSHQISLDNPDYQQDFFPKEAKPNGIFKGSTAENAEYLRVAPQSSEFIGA
Kind of experiment: EGFR Kinase Assay. Type of experiment: biochemical. In outline:
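GST-fused EGFR intracellular domain (aa 667 to end), Sf9-expressed, phosphorylating biotinylated polyGluTyr with 5 μM ATP plus γ-33P ATP in Tris pH 8.0, MgCl2, vanadate, 1 mM DTT; 1 h, 30 °C, streptavidin Flashplate scintillation read. Triplicate 16-point half-log series from 200 uM; IC50 from % inhibition vs log concentration, else % inhibition at 2 μM.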

Another experiment relates to A375 malignant melanoma. Description: Cell Proliferation Inhibition Assay (14C-thymidine incorporation), A375. Type of experiment: cell-based. As to conditions: Homo sapiens, A-375. How it is done: (§1) The ability of a test compound to inhibit unregulated cell proliferation was determined by measuring incorporation of ^14C-labelled thymidine into newly synthesized DNA within cell lines derived from carcinomas originating from several tissues. Accordingly, the anti-proliferative effect of a compound on cells with a variety of phenotypes may be determined.
(§2) Carcinoma cell lines include those such as HeLa cervical adenocarcinoma (American Type Culture Collection (ATCC), Virginia, Cat. #CCL-2), A375 malignant melanoma (ATCC CRL-1619), SK-OV-3 ovarian adenocarcinoma (ATCC HTB-77), HCT-116 colon carcinoma (CCL-247), PC-3 prostate adenocarcinoma (ATCC CRL-1435), and MDA-MB-231 (Xenogen Corp.)
(§3) The carcinoma cells were trypsinized and counted. The cells (3000-8000 count) were added to each well of a 96-well CytoStar tissue culture treated scintillating microplate (Amersham #RPNQ0160) in complete medium (100 μL) and the plate was then incubated in complete medium for 24 hrs at 37° C. in an […] atmosphere containing 5% CO2. Test compound (1 μL) in 100% DMSO was added to the plate test-wells with DMSO only added to control-wells. The plate was incubated in complete medium for a second 24 hr period at 37° C. in an atmosphere containing 5% CO2.
(§4) An aliquot of a solution of Methyl ^14C-thymidine ([…]) (NEN #NEC568 or Amersham #CFA532) and complete medium (20 uL to provide 0.2 μCi/well) was then added to each well and the plate was incubated for a third 24 hr period at 37° C. in an atmosphere containing 5% CO2. The plate contents were then discarded, the plate was washed twice with PBS (200 μL) and then PBS (200 μL) was added to each well. The plate was sealed and the degree of methyl ^14C-thymidine incorporation was quantified on a Packard Top Count.

Another experiment deals with HCT-116 colon carcinoma. Kind of experiment: Cell Proliferation Inhibition Assay (14C-thymidine incorporation), HCT116. Particulars: Homo sapiens. Type of experiment: cell-based. As for the experimental part:
as §1, §2, §3, §4

Experiment [1] relates to HeLa cervical adenocarcinoma. Kind of experiment: Cell Proliferation Inhibition Assay (14C-thymidine incorporation), HeLa. Type of experiment: cell-based. Particulars: Homo sapiens. How it is done: as §1, §2, §3, §4

Turning to `COc1cc(NC(=O)c2sc3ncc(C#N)c4c3c2NC(=O)N4c2ccc(Oc3ccccc3)cc2)ccc1CN1CCOCC1` [Cpd 45, 6-cyano-4-oxo-5-(4-phenoxy-phenyl)-4,5-dihydro-3H-1-thia-3,5,8-triaza-acenaphthylene-2-carboxylic acid (3-methoxy-4-morpholin-4-ylmethyl-phenyl)-amide], the IC50 at EGFR is 93 nM; in the experiment with A375 malignant melanoma it was > 10000 nM; with HCT-116 colon carcinoma it was > 10000 nM; in experiment [1] it was > 100000 nM.
For the molecule `CC(C)(C)OC(=O)NC1CCN(Cc2ccc(NC(=O)c3sc4ncc(C#N)c5c4c3NC(=O)N5c3c(Cl)ccc4c3OCO4)cc2)CC1` [Cpd 46, [1-(4-{[5-(5-chloro-benzo[1,3]dioxol-4-yl)-6-cyano-4-oxo-4,5-dihydro-3H-1-thia-3,5,8-triaza-acenaphthylene-2-carbonyl]-amino}-benzyl)-piperidin-4-yl]-carbamic acid tert-butyl ester], the IC50 against EGFR is 152 nM; with A375 malignant melanoma it was > 10000 nM; in the experiment on HCT-116 colon carcinoma, > 10000 nM; in experiment [1] it was > 10000 nM.
In the case of `N#Cc1cnc2sc(C(=O)Nc3ccc(CCN4CCCCC4)cc3)c3c2c1N(c1ccc(Oc2ccccc2)cc1)C(=O)N3` [Cpd 48, 6-cyano-4-oxo-5-(4-phenoxy-phenyl)-4,5-dihydro-3H-1-thia-3,5,8-triaza-acenaphthylene-2-carboxylic acid [4-(2-piperidin-1-yl-ethyl)-phenyl]-amide], at EGFR (test concentration of 2 μM, read-out: EGFR percent inhibition), the inhibition at 2 µM was 39%. Also, the concentration for half-maximal inhibition (IC50) was 8290 nM with A375 malignant melanoma, 15800 nM with HCT-116 colon carcinoma and > 10000 nM in experiment [1].
In the case of `N#Cc1cnc2sc(C(=O)Nc3ccc(CN4CCCCC4)cc3)c3c2c1N(c1ccc(Oc2ccccc2)cc1)C(=O)N3` [Cpd 49, 6-cyano-4-oxo-5-(4-phenoxy-phenyl)-4,5-dihydro-3H-1-thia-3,5,8-triaza-acenaphthylene-2-carboxylic acid (4-piperidin-1-ylmethyl-phenyl)-amide], the concentration for half-maximal inhibition (IC50) on EGFR is 224 nM; with A375 malignant melanoma, 1380 nM; with HCT-116 colon carcinoma, 985 nM; in experiment [1], 2190 nM.
